# Tests used:
# [1] = system: recurrent advanced stage NSCLC
# Protocol: Patients with advanced stage NSCLC, PS 0-1, previously treated with one first line platinum-based chemotherapy regimen were eligible for this trial. […] Tumor assessments were performed at screening and after every second treatment cycle according to RECIST (Response Evaluation Criteria in Solid Tumors).
# [2] = system: advanced non-small-cell lung cancer; experiment: Phase II double-blind randomized study of two doses of compound A1; type: in vivo, human; details: for median Progression Free Survival (PFS) time: all patients
# Protocol: This study was conducted as a Phase II double-blind, randomized study of two different doses of orally administered compound A1 in patients with advanced non-small-cell lung cancer who had failed at least one prior chemotherapy regimen. The primary efficacy endpoints evaluated were response rate and time to progression. Important secondary endpoints were survival and tolerability of compound A1.
# Patients were randomly assigned to receive compound A1 at a dose of 250 mg twice daily or 150 mg twice daily. The dose of compound A1 could be reduced stepwise to no lower than 100 mg twice daily in case of undue toxicity that would prevent chronic treatment. Patients were treated until diagnosis of progression of the underlying lung cancer disease. Progressive disease, for the analysis of the primary endpoint, was defined as radiological evidence of tumour progression according to RECIST criteria.
# This randomized study enrolled 73 patients in total, 36 patients at the dose of 250 mg twice daily and 37 patients at the dose of 150 mg twice daily.
# The ECOG performance status score is a scale from 0 to 5 with criteria used by doctors and researchers to assess how a patient's disease is progressing, assess how the disease affects the daily living abilities of the patient, and determine appropriate treatment and prognosis (Oken, M. M., Creech, R. H., Tormey, D. C., Horton, J., Davis, T. E., McFadden, E. T., Carbone, P. P.: Toxicity And Response Criteria Of The Eastern Cooperative Oncology Group. Am J Clin Oncol 5:649-655, 1982). […] Overall Survival (OS) time is defined as the length of time a patient lives after they are diagnosed with or treated for a disease.
# relapsed ovarian cancer = experiment: Phase II maintenance trial of compound A1 versus placebo; type: in vivo, human
# Protocol: The primary efficacy endpoint of this trial was the Progression Free Survival Rate (PFSR) at 9 months after start of treatment with compound A1. As secondary endpoints PFS rate at 3 months and 6 months, respectively, and time to next anti-tumour treatment were evaluated.
# Patients were randomly assigned to receive compound A1 at a dose of 250 mg twice daily or matching placebo. […] Patients were treated until diagnosis of progression of the underlying ovarian cancer disease. Progressive disease, for the analysis of the primary endpoint, was defined as either radiological progression, or tumour marker (CA-125) progression.
# In total, 84 patients were entered into the trial. 44 patients were randomised to receive compound A1 at a dose of 250 mg twice daily, and 40 patients to receive matching placebo.
# [3] = system: Calu-6 xenografts (human NSCLC tumor cell line); experiment: subcutaneous Calu-6 NSCLC xenografts, single agents and combination; type: in vivo; details: Calu-6 xenografts in nude mice, end of experiment (38 days of treatment), suboptimal doses
# Protocol: In order to analyse the anti-tumor effects of combining the inhibition of tumor angiogenesis by interfering with the VEGFR signaling cascade with the established anti-proliferative treatment modality of NSCLC with compound B1, the following in vivo experiment was performed. Nude mice carrying established subcutaneous Calu-6 xenografts (human NSCLC tumor cell line) were randomized and treated with either compound B1 or compound A1 alone or with the combination of both drugs.
# Rip-Tag = experiment: in vivo anti-tumor efficacy, Rip-Tag murine transgenic pancreas model
# HT-29 = experiment: in vivo anti-tumor efficacy, HT-29 xenograft model; details: Colorectal, HT-29, 100 mg/kg/d
# GS-9L = experiment: in vivo anti-tumor efficacy, GS-9L syngeneic rat tumor model; details: Glioblastoma, 50 mg/kg/d
# FaDu = experiment: in vivo anti-tumor efficacy, FaDu xenograft model; details: Head and neck, 100 mg/kg/d
# SKOV3 = experiment: in vivo anti-tumor efficacy, SKOV3 xenograft model; details: Ovarian, SKOV3, 50 mg/kg/d
# HT-29 large tumors = experiment: in vivo anti-tumor efficacy, HT-29 large tumors; details: Colorectal
# Calu-6 = experiment: in vivo anti-tumor efficacy, Calu-6 xenograft model; details: Lung (non-small-cell), Calu-6, 50 mg/kg/d
# Caki-1 = experiment: in vivo anti-tumor efficacy, Caki-1 xenograft model; details: Renal, Caki-1, 100 mg/kg/d
# NCI-H460 = experiment: in vivo anti-tumor efficacy, NCI-H460 xenograft model; details: Lung (non-small-cell), NCI-H460, 25 mg/kg/d
# PAC-120 = experiment: in vivo anti-tumor efficacy, PAC-120 xenograft model; details: Prostate (hormone-dependent), PAC-120, 100 mg/kg/d
# [4] = 250 mg twice daily maintenance, preliminary data output
smiles,measurement,setting,value
"CCS(=O)(=O)O.COC(=O)c1ccc2c(c1)NC(=O)/C2=C(\Nc1ccc(N(C)C(=O)CN2CCN(C)CC2)cc1)c1ccccc1 [compound A1, 3-Z-[1-(4-(N-((4-methyl-piperazin-1-yl)-methylcarbonyl)-N-methyl-amino)-anilino)-1-phenyl-methylene]-6-methoxycarbonyl-2-indolinone-monoethanesulphonate]",period the patient with the CR has been maintained on monotherapy,[1]; compound A1 monotherapy after combination stage,over 63 weeks
same,Maximum Tolerated Dose (MTD) of compound A1,[1]; in combination with standard dose of compound B1 (500 mg/m^2),200 mg bid
same,Overall Survival (OS) time,[2]; 150 mg twice daily,144 days
same,median Progression Free Survival (PFS) time,[2]; 150 mg twice daily,48 days
same,Overall Survival (OS) time,[2]; 250 mg twice daily,208 days
same,median Progression Free Survival (PFS) time,[2]; 250 mg twice daily,53 days
same,median overall survival (OS),[2]; all patients (ECOG 0-2),153 days
same,median PFS,"[2]; baseline ECOG of 0 or 1, 150 mg twice daily",81 days
same,median PFS,"[2]; baseline ECOG of 0 or 1, 250 mg twice daily",85 days
same,patients with stable disease,[2]; baseline ECOG of 2,one of the 17 patients
same,reduction (partial response) in tumor size,"[2]; one patient, 250 mg twice daily, sustained through 9 months",74%
same,median OS,[2]; patients with ECOG score of 0-1,264 days
same,patients achieving clinical benefit,[2]; subgroup with ECOG 0 or 1,~60%
same,PFS rate at 6 months (24 weeks),relapsed ovarian cancer; [4],28.3%
same,PFS rate at 9 months (36 weeks),relapsed ovarian cancer; [4],16.5%
same,median time to progression,"relapsed ovarian cancer; based on radiological data, disregarding tumour marker progression",143 days
same,PFS rate at 3 months (12 weeks),relapsed ovarian cancer; versus placebo arm,not different between arms
same,time between tumour marker progression and radiological progression,relapsed ovarian cancer; versus placebo arm,longer
same,T/C value,[3],33%
"Nc1nc2[nH]cc(CCc3ccc(C(=O)N[C@@H](CCC(=O)[O-])C(=O)[O-])cc3)c2c(=O)[nH]1.[Na+].[Na+] [compound B1, N-[4-[2-(2-amino-4,7-dihydro-4-oxo-1H-pyrrolo[2,3-d]pyrimidin-5-yl)ethyl]benzoyl]-L-Glutamic acid, disodium salt, heptahydrate, reference compound]",T/C value,[3],46%
"COC(=O)c1ccc2c(c1)NC(=O)/C2=C(\Nc1ccc(N(C)C(=O)CN2CCN(C)CC2)cc1)c1ccccc1 [compound A, 3-Z-[1-(4-(N-((4-methyl-piperazin-1-yl)-methylcarbonyl)-N-methyl-amino)-anilino)-1-phenyl-methylene]-6-methoxycarbonyl-2-indolinone]",Efficacy (cell wraps: interference with tumor formation),Rip-Tag,interference with
same,T/C,HT-29,T/C 16% @ 100 mg/kg/d
same,T/C,GS-9L,T/C 32% @ 50 mg/kg/d
same,T/C,FaDu,T/C 11% @ 100 mg/kg/d
same,T/C,SKOV3,T/C 19% @ 50 mg/kg/d
same,Efficacy,HT-29 large tumors,tumor volume reduction
same,T/C,Calu-6,T/C 24% @ 50 mg/kg/d
same,T/C,Caki-1,T/C 13% @ 100 mg/kg/d
same,T/C,NCI-H460,T/C 54% @ 25 mg/kg/d
same,T/C,PAC-120,T/C 34% @ 100 mg/kg/d
